Like-named read-outs stand apart in the source and are kept apart here.
Assays:
[1] = Drug solubility in oil at room temperature; format: physicochemical; details: for Drug solubility in Miglyol: Miglyol 812
[2] = cited from earlier work

Row | solubility in diethyl phthalate [1] | Compound | Drug solubility in Diethyl Phthalate [1] | Drug solubility in Miglyol [1] | water solubility ([2]; pH 4.0) | water solubility ([2]; pH 7.4)
1 | relatively low | CC(=O)[C@@]1(O)CC[C@H]2[C@@H]3C[C@H](C)C4=CC(=O)C=C[C@]4(C)[C@@]3(F)[C@@H](O)C[C@@]21C [Fluorometholone] | 0.075% | < 0.001% | – | –
2 | – | CC(C(=O)O)c1ccc(-c2ccccc2)c(F)c1 (stereo not shown) [Flurbiprofen (free acid)] | 12-20% | 2-4% | very small | higher

— patent US5441732A, “Reversible gelation emulsion compositions and methods of use” (Allergan, Inc., priority 1992, dated 1995)
